Biological target: PD-1/PD-L1 (Homo sapiens (Human), UniProt Q9NZQ7)
Assay: PD-1/PD-L1 Homogenous Time-Resolved Fluorescence (HTRF) binding assay
Conditions: PD-1-Ig (20 nM final)/PD-L1-His (10 nM final) binding assay
Source text: The ability of the compounds of the invention to bind to PD-L1 was investigated using a PD-1/PD-L1 Homogenous Time-Resolved Fluorescence (HTRF) binding assay.
The interaction of PD-1 and PD-L1 can be assessed using soluble, purified preparations of the extracellular domains of the two proteins. The PD-1 and PD-L1 protein extracellular domains were expressed as fusion proteins with detection tags, for PD-1, the tag was the Fc portion of Immunoglobulin (PD-1-Ig) and for PD-L1 it was the 6 histidine motif (PD-L1-His). All binding studies were performed in an HTRF assay buffer consisting of dPBS supplemented with 0.1% […] bovine serum albumin and 0.05% (v/v) Tween-20. For the h/PD-L1-His binding assay, inhibitors were pre-incubated with PD-L1-His (10 nM final) for 15m in 4 μl of assay buffer, followed by addition of PD-1-Ig (20 nM final) in 1 μl of assay buffer and further incubation for 15 m. HTRF detection was achieved using europium crypate-labeled anti-Ig (1 nM final) and allophycocyanin (APC) labeled anti-His (20 nM final). Antibodies were diluted in HTRF detection buffer and 5 μl was dispensed on top of the binding reaction. The reaction mixture was allowed to equilibrate for 30 minutes and the resulting signal (665 nm/620 nm ratio) was obtained using an EnVision fluorometer. Additional binding assays were established between the human proteins PD-1-Ig/PD-L2-His (20 & 5 nM, respectively) and CD80-His/PD-L1-Ig (100 & 10 nM, respectively).
Recombinant Proteins: Human PD-1 (25-167) with a C-terminal human Fc domain of immunoglobulin G (Ig) epitope tag [hPD-1 (25-167)-3S-IG] and human PD-L1 (18-239) with a C-terminal His epitope tag [hPD-L1(18-239)-TVMV-His] were expressed in HEK293T cells and purified sequentially by ProteinA affinity chromatography and size exclusion chromatography. Human PD-L2-His and CD80-His was obtained through commercial sources.
Homogenous Time-Resolved Fluorescence (HTRF) Assays of Binding of Soluble PD-1 to Soluble PD-L1. Soluble PD-1 and soluble PD-L1 refers to proteins with carboxyl-end truncations that remove the transmembrane-spanning regions and are fused to heterologous sequences, specifically the Fc portion of the human immunoglobuling G sequence (Ig) or the hexahistidine epitope tag (His). All binding studies were performed in an HTRF assay buffer consisting of dPBS supplemented with 0.1% (w/v) bovine serum albumin and 0.05% (v/v) Tween-20. For the PD-1-Ig/PD-L1-His binding assay, inhibitors were pre-incubated with PD-L1-His (10 nM final) for 15m in 4 μl of assay buffer, followed by addition of PD-1-Ig (20 nM final) in 1 μl of assay buffer and further incubation for 15 m. PD-L1 fusion proteins from either human, cynomologous macaques, mouse, or other species were used. HTRF detection was achieved using europium crypate-labeled anti-Ig monoclonal antibody (1 nM final) and allophycocyanin (APC) labeled anti-His monoclonal antibody (20 nM final). Antibodies were diluted in HTRF detection buffer and 5 μl was dispensed on top of binding reaction. The reaction was allowed to equilibrate for 30 minutes and signal (665 nm/620 nm ratio) was obtained using an EnVision fluorometer. Additional binding assays were established between PD-1-Ig/PD-L2-His (20 and 5 nM, respectively), CD80-His/PD-L1-Ig (100 and 10 nM, respectively) and CD80-His/CTLA4-Ig (10 and 5 nM, respectively).
Recombinant Proteins. Carboxyl-truncated human PD-1 (amino acids 25-167) with a C-terminal human Ig epitope tag [hPD-1 (25-167)-3S-IG] and human PD-L1 (amino acids 18-239) with a C-terminal His epitope tag [hPD-L1(19-239)-tobacco vein mottling virus protease cleavage site (TVMV)-His] were expressed in HEK293T cells and purified sequentially by recombinant Protein A affinity chromatography and size exclusion chromatography. Human PD-L2-His (Sino Biologicals), CD80-His (Sino Biologicals), CTLA4-Ig (RnD Systems) were all obtained through commercial sources.

PD-1/PD-L1, sequence (Q9NZQ7 18-239): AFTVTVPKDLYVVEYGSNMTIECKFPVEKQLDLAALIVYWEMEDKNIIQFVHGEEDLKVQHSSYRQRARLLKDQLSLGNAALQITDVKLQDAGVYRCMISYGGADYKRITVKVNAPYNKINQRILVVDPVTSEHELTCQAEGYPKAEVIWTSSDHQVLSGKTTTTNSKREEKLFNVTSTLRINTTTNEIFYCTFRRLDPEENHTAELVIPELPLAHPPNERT

Row | Structure (SMILES) | IC50 [nM]
1 | Cc1c(COc2cc(OCC3CCOCC3)c(CN[C@](C)(CO)C(=O)O)cc2Cl)cccc1-c1ccc2c(c1)OCCO2 [Example 1045, (R)-2-((5-Chloro-4-((3-(2,3-dihydrobenzo[b][1,4]dioxin-6-yl)-2-methylbenzyl)oxy)-2-((tetrahydro-2H-pyran-4-yl)methoxy)benzyl)amino)-3-hydroxy-2-methylpropanoic acid] | 4.4
2 | Cc1c(COc2cc(OC[C@@H](C)CO)c(CN3CCCC[C@H]3C(=O)O)cc2Cl)cccc1-c1ccc2c(c1)OCCO2 [Example 1034, (S)-1-(5-chloro-4-((3-(2,3-dihydrobenzo[b][1,4]dioxin-6-yl)-2-methylbenzyl)oxy)-2-((S)-3-hydroxy-2-methylpropoxy)benzyl)piperidine-2-carboxylic acid] | 3.9
3 | Cc1c(COc2cc(OCCN3CCCCC3)c(CN3CCCC[C@H]3C(=O)O)cc2Cl)cccc1-c1ccc2c(c1)OCCO2 [Example 1042, (S)-1-(5-Chloro-4-((3-(2,3-dihydrobenzo[b][1,4]dioxin-6-yl)-2-methylbenzyl)oxy)-2-(2-(piperidin-1-yl)ethoxy)benzyl)piperidine-2-carboxylic acid] | 0.6
4 | Cc1c(COc2cc(OCc3cccc(-c4nc(CC(=O)O)cs4)c3)c(CN[C@@](C)(CO)C(=O)O)cc2Cl)cccc1-c1ccc2c(c1)OCCO2 [Example 1013, (S)-2-((2-((3-(4-(Carboxymethyl)thiazol-2-yl)benzyl)oxy)-5-chloro-4-((3-(2,3-dihydrobenzo[b][1,4]dioxin-6-yl)-2-methylbenzyl)oxy)benzyl)amino)-3-hydroxy-2-methylpropanoic acid] | 72
5 | Cc1c(COc2cc(OCC3CCC3)c(CNC(C)(CO)CO)cc2Cl)cccc1-c1ccc2c(c1)OCCO2 [Example 1049, 2-((5-Chloro-2-(cyclobutylmethoxy)-4-((3-(2,3-dihydrobenzo[b][1,4]dioxin-6-yl)-2-methylbenzyl)oxy)benzyl)amino)-2-methylpropane-1,3-diol] | 14.2
6 | Cc1c(COc2cc(OCCCCN3CC[C@@H](O)C3)c(CN3CCCC[C@H]3C(=O)O)cc2Cl)cccc1-c1ccc2c(c1)OCCO2 [Example 1025, (S)-1-(5-Chloro-4-((3-(2,3-dihydrobenzo[b][1,4]dioxin-6-yl)-2-methylbenzyl)oxy)-2-(4-((R)-3-hydroxypyrrolidin-1-yl)butoxy)benzyl)piperidine-2-carboxylic acid] | 15.6
7 | Cc1c(COc2cc(OC[C@H](C)CO)c(CNC(C)(CO)CO)cc2Cl)cccc1-c1ccc2c(c1)OCCO2 [Example 1033, (R)-2-((5-Chloro-4-((3-(2,3-dihydrobenzo[b][1,4]dioxin-6-yl)-2-methylbenzyl)oxy)-2-(3-hydroxy-2-methylpropoxy)benzyl)amino)-2-methylpropane-1,3-diol] | 3.9
8 | Cc1c(COc2cc(OCCN3CC[C@@H](O)C3)c(CN[C@](C)(CO)C(=O)O)cc2Cl)cccc1-c1ccc2c(c1)OCCO2 [Example 1022, (R)-2-((5-Chloro-4-((3-(2,3-dihydrobenzo[b][1,4]dioxin-6-yl)-2-methylbenzyl)oxy)-2-(2-((R)-3-hydroxypyrrolidin-1-yl)ethoxy)benzyl)amino)-3-hydroxy-2-methylpropanoic acid] | 2.7
9 | Cc1c(COc2cc(OCCN3CCCC(O)(C(F)(F)F)C3)c(CN[C@](C)(CO)C(=O)O)cc2Cl)cccc1-c1ccc2c(c1)OCCO2 (stereo partly drawn) [Example 1057, (2R)-2-((5-Chloro-4-((3-(2,3-dihydrobenzo[b][1,4]dioxin-6-yl)-2-methylbenzyl)oxy)-2-(2-(3-hydroxy-3-(trifluoromethyl)piperidin-1-yl)ethoxy)benzyl)amino)-3-hydroxy-2-methylpropanoic acid] | 6.2
10 | Cc1c(COc2cc(OCCN3CCOCC3)c(CN[C@](C)(CO)C(=O)O)cc2Cl)cccc1-c1ccc2c(c1)OCCO2 [Example 1037, (R)-2-((5-Chloro-4-((3-(2,3-dihydrobenzo[b][1,4]dioxin-6-yl)-2-methylbenzyl)oxy)-2-(2-morpholinoethoxy)benzyl)amino)-3-hydroxy-2-methylpropanoic acid] | 1.8
11 | COC(=O)CCNS(=O)(=O)c1cncc(COc2cc(OCc3cccc(-c4ccc5c(c4)OCCO5)c3C)c(Cl)cc2CN[C@@](C)(CO)C(=O)O)c1 [Example 1018, (S)-2-((5-Chloro-4-((3-(2,3-dihydrobenzo[b][1,4]dioxin-6-yl)-2-methylbenzyl)oxy)-2-((5-(N-(3-methoxy-3-oxopropyl)sulfamoyl)pyridin-3-yl)methoxy)benzyl)amino)-3-hydroxy-2-methylpropanoic acid] | 4
12 | Cc1c(COc2cc(OCC3CCOCC3)c(CNC(C)(CO)CO)cc2Cl)cccc1-c1ccc2c(c1)OCCO2 [Example 1047, 2-((5-Chloro-4-((3-(2,3-dihydrobenzo[b][1,4]dioxin-6-yl)-2-methylbenzyl)oxy)-2-((tetrahydro-2H-pyran-4-yl)methoxy)benzyl)amino)-2-methylpropane-1,3-diol] | 5.4
13 | Cc1c(COc2cc(OCC3CCCN(C)C3)c(CN3CCCC[C@H]3C(=O)O)cc2Cl)cccc1-c1ccc2c(c1)OCCO2 (stereo partly drawn) [Example 2012, (2S)-1-(5-Chloro-4-((3-(2,3-dihydrobenzo[b][1,4]dioxin-6-yl)-2-methylbenzyl)oxy)-2-((1-methylpiperidin-3-yl)methoxy)benzyl)piperidine-2-carboxylic acid] | 28.5
14 | Cc1c(COc2cc(OCc3cncc(C(=O)N[C@@H](CO)C(=O)O)c3)c(CN3CC[C@H](O)C3)cc2Cl)cccc1-c1ccc2c(c1)OCCO2 [Example 2009, (S)-2-(5-((4-chloro-5-((3-(2,3-dihydrobenzo[b][1,4]dioxin-6-yl)-2-methylbenzyl)oxy)-2-(((S)-3-hydroxypyrrolidin-1-yl)methyl)phenoxy)methyl)nicotinamido)-3-hydroxypropanoic acid] | 4.6
15 | Cc1c(COc2cc(OCc3cncc(C(=O)NCCCN(C)C)c3)c(CN3CC[C@H](O)C3)cc2Cl)cccc1-c1ccc2c(c1)OCCO2 [Example 2007, (S)-5-((4-chloro-5-((3-(2,3-dihydrobenzo[b][1,4]dioxin-6-yl)-2-methylbenzyl)oxy)-2-((3-hydroxypyrrolidin-1-yl)methyl)phenoxy)methyl)-N-(3-(dimethylamino)propyl)nicotinamide] | 3.4
16 | Cc1c(COc2cc(OCc3cncc(S(=O)(=O)CCC(=O)O)c3)c(CN3CCCC[C@H]3C(=O)O)cc2Cl)cccc1-c1ccc2c(c1)OCCO2 [Example 1012, (S)-1-(2-((5-((2-Carboxyethyl)sulfonyl)pyridin-3-yl)methoxy)-5-chloro-4-((3-(2,3-dihydrobenzo[b]1[1,4]dioxin-6-yl)-2-methylbenzyl)oxy)benzyl)piperidine-2-carboxylic acid] | 3
17 | Cc1c(COc2cc(OCCCN(C)C)c(CN[C@@](C)(CO)C(=O)O)cc2Cl)cccc1-c1ccc2c(c1)OCCO2 [Example 2001, (S)-2-((5-chloro-4-((3-(2,3-dihydrobenzo[b][1,4]dioxin-6-yl)-2-methylbenzyl)oxy)-2-(3-(dimethylamino)propoxy)benzyl)amino)-3-hydroxy-2-methylpropanoic acid] | 9.5
18 | Cc1c(COc2cc(OCCN3CCCCC3)c(CNC(C)(CO)CO)cc2Cl)cccc1-c1ccc2c(c1)OCCO2 [Example 1044, 2-((5-Chloro-4-((3-(2,3-dihydrobenzo[b][1,4]dioxin-6-yl)-2-methylbenzyl)oxy)-2-(2-(piperidin-1-yl)ethoxy)benzyl)amino)-2-methylpropane-1,3-diol] | 2.1
